US5977136A, “Tetrahydroquinolines as NMDA antagonists” (Glaxo Wellcome SpA, priority 1995, dated 1999)

Each compound was assayed against T1, strychnine insensitive glycine binding site located on the NMDA receptor complex (Rattus norvegicus, UniProt P35439) (assay: biochemical). Conditions: not given.
T1 construct: determined using the procedure of Kishimoto H. et al J. Neurochem 1981, 37, 1015-1024; from tissue
For `O=C(/C=C1\CC(C(=O)[O-])Nc2cc(Cl)ccc21)Nc1ccccc1.[Na+]` (racemic) [Example 2, (+/-)(E)7-Chloro-4-Phenylcarbamoylmethylene-1,2,3,4-Tetrahydro-Quinoline-2- Carboxylic Acid Sodium Salt], the Ki was 39.8 nM.

Same assay, conditions: strychnine insensitive glycine binding site; read-out: pKi (converted)
For `CC(=O)Nc1ccc(NC(=O)/C=C2\CC(C(=O)O)Nc3cc(Cl)cc(Cl)c32)cc1` (racemic) [Example 5, (+/-)(E)-4-(4-Acetylamino-Phenylcarbamoylmethylene)-5,7-Dichloro-1,2,3,4-Tetrahydro-Quinoline-2-Carboxylic Acid], the Ki was 7.94 nM.
`CC(=O)Nc1cccc(NC(=O)/C=C2\CC(C(=O)O)Nc3cc(Cl)cc(Cl)c32)c1` (racemic) [Example 6, (+/-)(E)-4-(3-Acetylamino-Phenylcarbamoylmethylene)-5,7-Dichloro-1,2,3,4-Tetrahydro-Quinoline-2-Carboxylic Acid] was tested, and the Ki was 15.8 nM.
With `O=C(/C=C1\CC(C(=O)O)Nc2cc(Cl)cc(Cl)c21)Nc1cccc(Cl)c1` (racemic) [Example 7, (+/-)(E)-5,7-Dichloro-4-[3-(Chloro)Phenylcarbamoylmethylene]-1,2,3,4-Tetrahydro-Quinoline-2-Carboxylic Acid] the Ki was 39.8 nM.
Work on `Nc1ccc(NC(=O)/C=C2\CC(C(=O)O)Nc3cc(Cl)cc(Cl)c32)cc1` (racemic) [Example 8, (+/-)(E)-4-(4-Amino-Phenylcarbamoylmethylene)-5,7-Dichloro-1,2,3,4-Tetrahydro-Quinoline-2-Carboxylic Acid] yielded a Ki of 15.8 nM.
`NC(=O)NCc1ccc(NC(=O)/C=C2\CC(C(=O)O)Nc3cc(Cl)cc(Cl)c32)cc1` (racemic) [Example 9, (+/-)(E)-5,7-Dichloro-4-[4(Ureidomethyl)Phenylcarbamoylmethylene]-1,2,3,4-Tetrahydro-Quinoline-2-Carboxylic Acid] was tested, and the Ki was 3.98 nM.
Work on `O=CNCc1ccc(NC(=O)/C=C2\CC(C(=O)O)Nc3cc(Cl)cc(Cl)c32)cc1` (racemic) [Example 10, (+/-)(E)-5,7-Dichloro-4-[4(Formylaminomethyl)Phenylcarbomoylmethylene]-1,2,3,4-Tetrahydro-Quinoline-2-Carboxylic Acid] yielded a Ki of 5.01 nM.
`CC(=O)NCc1ccc(NC(=O)/C=C2\CC(C(=O)O)Nc3cc(Cl)cc(Cl)c32)cc1` (racemic) [Example 11, (+/-)(E)-5,7-Dichloro-4-[4(Acetylaminomethyl)Phenylcarbomoylmethylene]-1,2,3,4-Tetrahydro-Quinoline-2-Carboxylic Acid] showed a Ki of 5.01 nM.
`CC(C)C(=O)Nc1ccc(NC(=O)/C=C2\CC(C(=O)O)Nc3cc(Cl)cc(Cl)c32)cc1` (racemic) [Example 12, (+/-)(E)-5,7-Dichloro-4-[4(Isobutyrylamino)Phenylcarbomoylmethylene]-1,2,3,4-Tetrahydro-Quinoline-2-Carboxylic Acid] showed a Ki of 15.8 nM.
Work on `CC(C)C(=O)NCc1ccc(NC(=O)/C=C2\CC(C(=O)O)Nc3cc(Cl)cc(Cl)c32)cc1` (racemic) [Example 13] yielded a Ki of 15.8 nM.
For `O=C(/C=C1\CC(C(=O)O)Nc2cc(Cl)cc(Cl)c21)Nc1ccc(CN2CCOCC2)cc1` (racemic) [Example 14, (+/-)(E)-5,7-Dichloro-4-(4-Morpholin-4-Ylmethyl-Phenylcarbamoylmethylene)-1,2,3,4-Tetrahydro-Quinoline-2-Carboxylic Acid], the Ki was 7.94 nM.
`O=C(O)Cc1ccc(NC(=O)/C=C2\CC(C(=O)O)Nc3cc(Cl)cc(Cl)c32)cc1` (racemic) [Example 15, (+/-)(E)-4-(4-Carboxymethyl-Phenylcarbamoylmethylene)-5,7-Dichloro-1,2,3,4-Tetrahydro-Quinoline-2-Carboxylic Acid] gave a Ki of 19.1 nM.
For `NC(=O)Cc1ccc(NC(=O)/C=C2\CC(C(=O)O)Nc3cc(Cl)cc(Cl)c32)cc1` (racemic) [Example 16, (+/-)(E)-5,7-Dichloro-4-(4-Carbamoylmethyl-Phenylcarbamoylmethylene)-1,2,3,4-Tetrahydro-Quinoline-2-Carboxylic Acid], the Ki was 6.61 nM.
`CC(C)C(=O)NCCc1ccc(NC(=O)/C=C2\CC(C(=O)O)Nc3cc(Cl)cc(Cl)c32)cc1` (racemic) [Example 17, (+/-)(E)-5,7-Dichloro-4-[4-(2-Isobutyrylamino-Ethyl)Phenylcarbamoylmethylene]-1,2,3,4-Tetrahydro-Quinoline-2-Carboxylic Acid] showed a Ki of 12.6 nM.
Work on `CC(=O)NCCc1ccc(NC(=O)/C=C2\CC(C(=O)O)Nc3cc(Cl)cc(Cl)c32)cc1` (racemic) [Example 18, (+/-)(E)-5,7-Dichloro-4-[4-(2-Acetylamino-Ethyl)Phenylcarbamoylmethylene]-1,2,3,4-Tetrahydro-Quinoline-2-Carboxylic Acid] yielded a Ki of 12.6 nM.
With `CC(C)CC(=O)Nc1ccc(NC(=O)/C=C2\CC(C(=O)O)Nc3cc(Cl)cc(Cl)c32)cc1` (racemic) [Example 19, (+/-)(E)-5,7-Dichloro-4-[4-(3-Methyl-Butyrylamino)-Phenylcarbamoylmethylene]-1,2,3,4-Tetrahydro-Quinoline-2-Carboxylic Acid] the Ki was 18.6 nM.
Work on `O=C(/C=C1\CC(C(=O)O)Nc2cc(Br)cc(Br)c21)Nc1ccccc1` (racemic) [Example 21, (+/-)-(E)-5,7-Dibromo-4-Phenylcarbamoylmethylene-1,2,3,4-Tetrahydroquinoline-2-Carboxylic Acid] yielded a Ki of 26.3 nM.
With `O=C(/C=C1\CC(C(=O)[O-])Nc2cc(Cl)cc(Cl)c21)Nc1ccccc1.[Na+]` (racemic) [Sodium Salt] the Ki was 6.31 nM.

What follows are compounds tested on NMDA induced convulsions in mice (assay: Inhibition of NMDA induced convulsions in the mouse (procedure of Chiamulera C et al.)). Conditions: iv, read-out: ED50 (dose required to protect 50% of the animals from the convulsive action of the NMDA).
Type: in vivo
Text: In this test the ability of the compound when administered iv to inhibit the generalized seizures induced by an intracerebroventricular injection of NMDA in mice was examined at a number of dose levels.
`O=C(/C=C1\CC(C(=O)[O-])Nc2cc(Cl)cc(Cl)c21)Nc1ccccc1.[Na+]` (racemic) showed an ED50 of 1 mg/kg.

Same assay, conditions: mice, compound iv, generalized seizures induced by intracerebroventricular injection of NMDA, read-out: ED50 (dose required to protect 50% of the animals from the convulsive action of the NMDA)
`O=C(/C=C1\CC(C(=O)[O-])Nc2cc(Cl)ccc21)Nc1ccccc1.[Na+]` (racemic) [Example 2, (+/-)(E)7-Chloro-4-Phenylcarbamoylmethylene-1,2,3,4-Tetrahydro-Quinoline-2- Carboxylic Acid Sodium Salt] was tested, and the ED50 was 0.2 mg/kg.
Compound `CC(=O)Nc1ccc(NC(=O)/C=C2\CC(C(=O)O)Nc3cc(Cl)cc(Cl)c32)cc1` (racemic) [Example 5, (+/-)(E)-4-(4-Acetylamino-Phenylcarbamoylmethylene)-5,7-Dichloro-1,2,3,4-Tetrahydro-Quinoline-2-Carboxylic Acid] has an ED50 of 0.2 mg/kg.
